The text below walks through data of patent publication US20220160798A1 (priority 2019, published 2022).

Experiment [1] concerns ICR mice. The experiment in a line: Morris water maze test, scopolamine-induced dementia. The class given is in vivo. How it is done: The deterioration of cognitive ability of Aβ1-42 (Amyloid Beta 1-42) was evaluated in 4-week-old male mice. ICR mice (Bio Link, Eumseong-gun, Chungbuk, Korea) were purchased, adapted to an experimental animal room for one week, and randomly consisted of 6 mice in each group. As experimental groups, a group administered with the Spirulina extract (hereinafter, SM70EE) produced by Example 1 by concentration and a group administered with chlorophyll a were used. As a control group, a group without treating a Spirulina extract, and as a comparative group, a group administered with scopolamine causing dementia and a group administered with donepezil as a dementia therapeutic agent were used. […]
In Experimental Example above, a passive avoidance analysis evaluation test was conducted by applying a Morris's method. […] For adaptation, only the swimming practice was performed for 60 seconds without a platform on the first day of the experiment, a test trial was performed for 4 days in the pool disposed with the platform from the second day, and then escape latency time which was time taken for experimental mice administered with a drug to escape on the platform was measured. […]

In experiment [2] the test system is ICR mice. The experiment in a line: Passive avoidance test, scopolamine-induced dementia. The experiment is classed as in vivo. How it is done:
The deterioration of cognitive ability of Aβ1-42 (Amyloid Beta 1-42) was evaluated in 4-week-old male mice. ICR mice (Bio Link, Eumseong-gun, Chungbuk, Korea) were purchased, adapted to an experimental animal room for one week, and randomly consisted of 6 mice in each group. As experimental groups, a group administered with the Spirulina extract (hereinafter, SM70EE) produced by Example 1 by concentration and a group administered with chlorophyll a were used. As a control group, a group without treating a Spirulina extract, and as a comparative group, a group administered with scopolamine causing dementia and a group administered with donepezil as a dementia therapeutic agent were used. During the adaptation period, the feed and water were freely supplied without limitation, and the temperature of 22±2° C. and the humidity of 50±10% were maintained, and the contrast was adjusted to a period of 12 hours (09:00 to 21:00).
An avoidance box (40×20×20 cm) of a passive avoidance measuring device was divided into a light box and a dark box, and a door was installed between the rooms so that the experimental mice moved. […]
After 24 hours, the same test was conducted, and the escape latency time while the experimental mice moved was measured. […]

On to `CN1[C@@H]2C[C@@H](OC(=O)[C@H](CO)c3ccccc3)C[C@H]1[C@@H]1O[C@@H]12` [scopolamine], for which the escape latency time result in the experiment with ICR mice [1] (scopolamine only, 1 mg/kg s.c.) is “increased”. Moreover, in the experiment with ICR mice [2] (scopolamine only, 1 mg/kg s.c., vs control group), the latency time entry is “significantly reduced”.
Regarding `C=Cc1c(C)c2cc3nc(c4c5[n-]c(cc6nc(cc1[n-]2)C(C)=C6CC)c(C)c5C(=O)[C@@H]4C(=O)OC)[C@@H](CCC(=O)OC/C=C(\C)CCC[C@H](C)CCC[C@H](C)CCCC(C)C)[C@@H]3C.[Mg+2]` [chlorophyll a], the escape latency time entry in the experiment on ICR mice [1] (10 mg/kg oral, scopolamine 1 mg/kg s.c.) is reported as “decreased”. In addition, in the experiment on ICR mice [2] (10 mg/kg oral, scopolamine 1 mg/kg s.c., vs scopolamine group), the latency time result was “increased”.
